Laboratory results from publication PMC3185947 (British Journal of Cancer, 2011).

Legend:
[1] = tested on: patients receiving erlotinib 150 mg per day; design: method as in earlier work; conditions: ref Shepherd et al, 2005, Perez-Soler and Van Cutsem, 2007; cited from earlier work
[2] = tested on: patients with previously treated advanced NSCLC
Method: In the initial stage, we assessed the feasibility of intrapatient dose escalation from 150 mg per day to a maximal level of tolerable skin toxicity, which was defined as the TR. This objective was determined to be feasible if patients developed a TR in the absence of non-cutaneous dose-limiting toxicity (DLT). […] Skin toxicity was graded according to the following scale that was based on patient tolerability:
In the absence of both a TR and non-cutaneous DLT, the dose was increased in each patient to 200 mg per day, and then in 25 mg per day increments every 14 days. […] Toxicities were graded according to the National Cancer Institute Common Toxicity Criteria (NCI CTC), Version 2.0, except for skin toxicity.
Doses were reduced in 25 mg per day decrements for toxicity. The initial systemic intervention for symptomatic skin toxicity was minocycline 100–150 mg twice daily for at least 7 days, and the initiation of treatment with minocycline for symptomatic rash was at the discretion of the investigator.

clinical = conditions: human, in vivo
From the text: PK parameters were estimated by non-compartmental methods (WinNonlin v.3.1, Pharsight Corp., Mountain View, CA, USA).
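For Cmax in this document: pharmacokinetic parameters derived by non-compartmental analysis.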
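For Tmax in this document: pharmacokinetic parameters derived by non-compartmental analysis.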

C#Cc1cccc(Nc2ncnc3cc(OCCOC)c(OCCOC)cc23)c1 [erlotinib]
Patients who developed NCI CTC grade 2 or 3 rash [1]: ~30% | Patients with pain associated with skin toxicity ([2]; 10 of 42 patients): 24% | Patients with urticaria as dominant feature of rash ([2]; 11 of 42 patients): 26% | Patients in whom the rash resembled rosacea ([2]; 12 of 42 patients): 29% | Patients with desquamation as dominant feature of rash ([2]; 16 of 42 patients): 38% | Patients with a TR who developed it at the initial 150 mg per day dose level ([2]; 19 of 24 patients with TR): 79% | Patients who developed a target rash (TR) ([2]; 24 of 42 patients, TR = grade 2 tolerable rash requiring minocycline): 57% | Patients with pruritus associated with skin toxicity ([2]; 28 of 42 patients): 67% | Patients who developed skin toxicity ([2]; 41 of 42 patients): 98% | Patients discontinued from the study due to skin toxicity ([2]; 42 patients): No patient | Initial patients (first stage) who developed a TR ([2]; first stage of the study): 10 of the 11 initial patients | Patients with a TR who experienced it only after dose escalation ([2]; five of 24 patients with TR): 21% | Patients who experienced a grade 3 rash ([2]; of 42 patients): Six | Dosing range above which erlotinib doses could not be increased in most patients ([2]; principally due to intolerable skin toxicity despite supportive measures): 250–300 mg per day | Patients with a TR who developed it following escalation to 200 mg per day ([2]; three of 24 patients with TR): 13% | Patients with a TR who developed it following escalation to 225 mg per day ([2]; two of 24 patients with TR): 8% | Cmax (clinical; 150 mg): 1910 ng/mL | Tmax (clinical; 150 mg): 2 h | Cmax (clinical; 200 mg): 2650 ng/mL | Tmax (clinical; 200 mg): 2 h | Cmax (clinical; 225 mg): 2540 ng/mL | Tmax (clinical; 225 mg): 2 h | Cmax (clinical; 250 mg): 2820 ng/mL | Tmax (clinical; 250 mg): 2.1 h | Cmax (clinical; 275 mg): 2190 ng/mL | Tmax (clinical; 275 mg): 1 h | Cmax (clinical; 300 mg): 2940 ng/mL | Tmax (clinical; 300 mg): 2 h | Cmax (clinical; 325 mg): 2800 ng/mL | Cmax (clinical; 350 mg): 1780 ng/mL | Tmax (clinical; 350 mg): 3.5 h | Cmax (clinical; 375 mg): 2770 ng/mL | Tmax (clinical; 375 mg): 1 h | Tmax (clinical; 400 mg): 2 h | Cmax (clinical; 425 mg): 2780 ng/mL | Cmax (clinical; 450 mg): 4100 ng/mL | Tmax (clinical; 450 mg): 8 h | Cmax (clinical; 475 mg): 2200 ng/mL | Tmax (clinical; 475 mg): 4.2 h
